# According to patent US20060258601A1, “Formulation for inwardly transferring nucleic acids into eucaryotic cells” (priority 2002, published 2006):
# Experiments:
# Type in all cases: cell-based
# caveolin-1 = assay: Western-blot analysis of caveolin-1 protein expression after antisense oligonucleotide treatment; conditions: human cultivated endothelial cells; antisense 0.5 μmol/l with lipofectin; n=3
# Procedure: (§1) For an antisense mixture, 3% lipofectin (v/v) (Gibco Life Technologies) was added to 1 ml culture medium and incubated for 60 minutes at room temperature (RT). Following this, the corresponding antisense or control oligonucleotide (Eurogentec, Köln, Germany) was added in a final concentration of 0.5 μmol/l and incubated for a further 30 minutes at room temperature. At the start of the experiments, the corresponding quantities of heparin and endothelial growth factor were added, and the conventional cell culture medium of the endothelial cell culture was replaced by the antisense lipofectin medium. After 6 hours, the antisense lipofectin medium was removed and replaced by fresh cell culture medium; the Western-blot analysis and/or the fluorescence-microscopic analysis of the decoy-oligonucleotide absorption was carried out 24 hours after the transfection. […]
# (§2) The human umbilical vein endothelial cells were opened by freezing successively five times in liquid nitrogen and thawing at 37° C. […] CD40 protein was detected with a polyclonal anti-human antibody (Research Diagnostics Inc., Flanders, N.J., USA). […]
# [1] = system: human cultivated endothelial cells; assay: Absorption of FITC-marked decoy oligonucleotide, fluorescence microscopy; conditions: for concentration of the nucleic acids in the cell on co-incubation with nonsteroidal anti-inflammatory drug: 100 μmol/l co-incubation, 1 hour (FIG. 6); for effect of transport inhibitors on accumulation/absorption of decoy oligonucleotides: human endothelial cells, methotrexate by comparison with folic acid
# Procedure: Human endothelial cells were isolated from umbilical veins by treatment with 1.6 U/ml dispase in Hepes-modified tyrode solution for 30 minutes at 37° C. and cultivated on gelatine-coated 6-well tissue-culture dishes (2 mg/ml gelatine in 0.1 M HCl for 30 minutes at room temperature) in 1.5 ml M199 medium (Gibco Life Technologies, Karlsruhe, Germany), containing 20% foetal calf serum, 50 U/ml penicillin, 50 μg/ml streptomycin, 10 U/ml nystatin, 5 mM HEPES and 5 mM TES, 1 μg/ml heparin and 40 μg/ml endothelial growth factor. […] Before the start of the experiment, the endothelial cells cultivated in the 24-well cell-culture plates were washed once with Ringer's solution at 37° C. (composition: 145 mmol/l Na^+, 5 mmol/l K^+, 156 mmol/l Cl^−, 2 mmol/l Ca^2+, 1 mmol/l Mg^2+, 10 mmol/l Hepes, 10 mmol/l D-glucose, pH 7.35). […] After an incubation period of up to 180 min at 37° C. and in ambient air, the cells were washed three times with 1 ml warm, non-modified Ringer's solution. The fluorescence intensities were recorded with the MicroMax CCD-camera (Princeton Instruments Inc., Trenton, N.J., USA), which was coupled to an Axiovert S100 TV microscope (Zeiss, Göttingen, Germany), with an excitation wavelength of 494 nm, an emission wavelength of 518 nm and 200× magnification. The fluorescence images (one image was taken for each portion of the experimental mixture) and the subsequent quantification was implemented using the MetaMorph V3.0 Software (Universal Imaging West Chester, Pa., USA). For the quantification, all fluorescence images for an experimental mixture were initially calibrated to an identical level of brightness and contrast. Following this, the software was used to determine an overall brightness integrated across the individual pixels for each image as a measure for the fluorescence intensity, thereby representing the intracellular concentration of the decoy oligonucleotide.
# [2] = system: reduced folic-acid-carrier; assay: Western-blot analysis of reduced folic-acid-carrier protein expression after antisense oligonucleotide treatment; conditions: human cultivated endothelial cells; antisense 0.5 μmol/l with lipofectin; n=5
# Procedure: as §1, §2
# [3] = FITC-marked C/EBP decoy 10 μmol/l
compound,measurement,setting,value
5′-A*T*G*TCCCTCCGAGT*C*T*A-3′ [antisense oligonucleotide for caveolin-1],protein expression of caveolin-1,caveolin-1,37±10 % of the control
same,effect on absorption of the decoy oligonucleotide,"[1]; after inhibition of caveolin-1 expression, FITC-marked C/EBP decoy 10 μmol/l, 1 hour (FIG. 2)",significant restricttion
CC(C(=O)O)c1ccc(N2Cc3ccccc3C2=O)cc1 (stereo not drawn) [indoprofen],concentration of the nucleic acids in the cell on co-incubation with nonsteroidal anti-inflammatory drug,[1]; [3],significantly increased
CN(Cc1cnc2nc(N)nc(N)c2n1)c1ccc(C(=O)N[C@@H](CCC(=O)O)C(=O)O)cc1 [methotrexate],effect of transport inhibitors on accumulation/absorption of decoy oligonucleotides,[1],considerably improved inhibition
5′-C*A*A*A*GG*T*A*GC*A*C*A*CG*A*G-3′,protein expression of the reduced folic-acid-carrier,[2],33±10 % of the control
same,inhibition of the decoy-oligonucleotide absorption,"[1]; after antisense reduction of hFRC protein, FITC-marked C/EBP decoy 10 μmol/l, 1 hour (FIG. 4)",45%
CC(C(=O)O)c1ccc(-c2ccccc2)c(F)c1 (stereo not drawn) [flurbiprofen],concentration of the nucleic acids in the cell on co-incubation with nonsteroidal anti-inflammatory drug,[1]; [3],significantly increased
CCCN(CCC)S(=O)(=O)c1ccc(C(=O)O)cc1 [probenicid],effect of transport inhibitors on accumulation/absorption of decoy oligonucleotides,[1],probenicid-sensitive
"O=S(=O)(O)c1cc(N=C=S)ccc1C=Cc1ccc(N=C=S)cc1S(=O)(=O)O [DIDS, 4,4′-diisothiocyano-2,2′-stilben-disulfonic acid]",effect of transport inhibitors on accumulation/absorption of decoy oligonucleotides,[1],high sensitivity
